We go through 12 compounds from patent US20250223268A1, “4-Methylsulfonylbenzamide Compound, Preparation Method, Herbicidal Composition And Use” (Jiangsu Flag Chemical Industry Co., Ltd., priority 2022, published 2025).

Common to all, as to format: in vivo
Data set [1] has as its system Oryza sativa subsp. japonica. Description: Greenhouse herbicidal activity and crop safety comparison (Test Example 2). The text has this: (§1) Pre-emergence: Seeds of gramineous weeds (Echinochloa crusgalli, Echinochloa crusgalli var. zelayensis, Echinochloa phyllopogon, Eleusine indica, Digitaria sanguinalis, Leptochloa chinensis, Setaria viridis, Alopecurus japonicus Steud, Beckmannia syzigachne, Polypogon fugax, Alopecurus aequalis, Lolium multiflorum, Poa annua, Aegilops tataschii, Avena fatua, Alopecurus myosuroides, Bromus japonicus), broadleaf weeds (Eclipta prostrata, Amaranthus retroflexus, Rorippa indica, Myosoton aquaticum, Veronica didyma, Galium aparine, Solanum nigrum, Xanthium sibiricum, Conyza canadensis, Sesbania cannabina, Sagittaria trifolia), and Cyperus iria (Cyperus iria, Scirpus juncoides, Cyperus difformis, etc.) were sown in plastic pots (7 cm diameter) with nutrient soil and bottom holes. Crop seeds (including Oryza sativa subsp. indica, Oryza sativa subsp. japonica, Oryza sativa L. var. Glutinosa matsum, Triticum aestivum, Zea mays, Sorghum bicolor, Setaria italica, Glycine max, Gossypium hirsutum, Brassica napus, Arachis hypogaea) were sown in plastic pots (10 cm diameter) with nutrient soil and bottom holes. After sowing, the seeds were lightly covered with soil, and the soil was moistened via bottom water absorption. The pots were placed in a constant-temperature light-controlled growth chamber for 24 hours before soil spraying. Spraying was performed using a 3WP-2000 walking-type spray tower (produced by the Nanjing Agricultural Mechanization Institute, Ministry of Agriculture) with a spindle speed of 96 mm/r, spray height of 300 mm, effective spray width of 350 mm, spray area of 0.35 m^2, and nozzle flow rate of 390 mL/min.
(§2) After treatment, the test materials were air-dried naturally in the laboratory and then transferred to the growth chamber. Results were assessed 14-30 days later.
(§3) Post-emergence: Seeds of gramineous weeds (Echinochloa crusgalli, Echinochloa crusgalli var. zelayensis, Echinochloa phyllopogon, Eleusine indica, Digitaria sanguinalis, Leptochloa chinensis, Setaria viridis, Alopecurus japonicus Steud, Beckmannia syzigachne, Polypogon fugax, Alopecurus aequalis, Lolium multiflorum, Poa annua, Aegilops tataschii, Avena fatua, Alopecurus myosuroides, Bromus japonicus), broadleaf weeds (Eclipta prostrata, Amaranthus retroflexus, Rorippa indica, Myosoton aquaticum, Veronica didyma, Galium aparine, Solanum nigrum, Xanthium sibiricum, Conyza canadensis, Sesbania cannabina, Sagittaria trifolia), and Cyperus iria (Cyperus iria, Scirpus juncoides, Cyperus difformis, etc.) were sown in plastic pots (7 cm diameter) with nutrient soil and bottom holes. Crop seeds (including Oryza sativa subsp. indica, Oryza sativa subsp. japonica, Oryza sativa L. var. Glutinosa matsum, Triticum aestivum, Zea mays, Sorghum bicolor, Setaria italica, Glycine max, Gossypium hirsutum, Brassica napus, Arachis hypogaea) were sown in plastic pots (10 cm diameter) with nutrient soil and bottom holes. After sowing, the pots were placed in the growth chamber until the plants reached the 3-6 leaf stage for foliar spraying. Post-treatment, the materials were air-dried naturally and returned to the growth chamber. Results were assessed 14-21 days later.
(§4) • A: Fresh weight inhibition rate≥80% to 100%; • B: Fresh weight inhibition rate[…] to <80%; • C: Fresh weight inhibition rate≥40% to <60%; • D: Fresh weight inhibition rate≥20% to <40%; • E: Fresh weight inhibition rate<20%; • NT: Not tested.
(§5) Using the above method, the herbicidal activity and crop safety of the present compounds were compared with structurally similar known compounds (CK1, CK2, CK3, CK4: compounds 4-756, 4-759, 1-557, 1-563 from WO2012028579A1; CK5: compound 290-1 from WO2013087577A1; CK6: compound 1-129 from WO2011035874A1).

Data set [2] has as its system Echinochloa crusgalli. The data set is described as above. The conditions noted are these: for inhibition at 150 g/ha / Echinochloa crusgalli, control efficacy grading (fresh weight inhibition rate): Rate 150 g/ha; for inhibition at 75 g/ha: Rate 75 g/ha.
Excerpt: as §1, §2, §3, §4, §5

Data set [3] deals with Oryza sativa subsp. indica. The data set is described as above.
Excerpt: as §1, §2, §3, §4, §5

Data set [4] deals with Echinochloa crusgalli. Description: Greenhouse herbicidal activity assay, post-emergence. The conditions noted are these: Post-emergence test, rate 150 g a.i./hm^2; grade by fresh weight inhibition rate. The gist of the method:
(§6)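 Foliar spray at 3-6 leaves; pot-grown in nutrient soil in growth chamber; air-dried post-spray. Read-out at 14-21 d: fresh weight inhibition, graded A (≥80% to 100%) down to E (<20%); NT = not tested.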

Data set [5] concerns Digitaria sanguinalis. The data set is described as above. The note with it: Post-emergence test, rate 150 g a.i./hm^2; grade by fresh weight inhibition rate. An outline of the steps:
as §6

Data set [6] has as its system Eclipta prostrata. Described as above. The note with it: Post-emergence test, rate 150 g a.i./hm^2; grade by fresh weight inhibition rate. The gist of the method: as §6
Data set [7] has as its system Cyperus iria. The data set is described as above. The note with it: Post-emergence test, rate 150 g a.i./hm^2; grade by fresh weight inhibition rate. The gist of the method: as §6
The test system of data set [8] is Leptochloa chinensis. Described as above. The conditions noted are these: Post-emergence test, rate 150 g a.i./hm^2; grade by fresh weight inhibition rate. The gist of the method: as §6
The mark [9] stands for this setting: Echinochloa crus-galli, read-out: Echinochloa crusgalli, control efficacy grading (fresh weight inhibition rate).

In the case of `CCn1nnnc1NC(=O)c1ccc(S(C)(=O)=O)c(S(=O)(=O)C(C)C)c1Cl` [Compound 1-96, 2-chloro-N-(1-ethyl-1H-tetrazol-5-yl)-3-(isopropylsulfonyl)-4-(methylsulfonyl)benzamide], in data set [1] (Rate 150 g/ha), the “Oryza sativa subsp. japonica, grading of fresh weight inhibition rate (crop safety)” value is listed as “E (Fresh weight inhibition rate<20%)”. Further, the inhibition at 150 g/ha in data set [2] (setting [9]) is 80 to 100%. The “Oryza sativa subsp. indica, grading of fresh weight inhibition rate (crop safety)” value in data set [3] (Rate 150 g/ha) was “E (Fresh weight inhibition rate<20%)”.

With `Cn1nnnc1NC(=O)c1ccc(S(C)(=O)=O)c(S(C)(=O)=O)c1Cl` [CK1, reference compound], the “Oryza sativa subsp. japonica, grading of fresh weight inhibition rate (crop safety)” value in data set [1] (Rate 18.75 g/ha) is on record as “C (Fresh weight inhibition rate≥40% to <60%)”; in data set [1] (Rate 75 g/ha), “C (Fresh weight inhibition rate≥40% to <60%)”; in data set [1] (Rate 150 g/ha), “B (Fresh weight inhibition rate≥260% to <80%)”. For the same compound, the inhibition at 75 g/ha in data set [2] (setting [9]) is 80 to 100%. The inhibition at 150 g/ha in data set [2] (setting [9]) lay within 80 to 100%. Also, the results for the “Oryza sativa subsp. indica, grading of fresh weight inhibition rate (crop safety)” value in data set [3] (Rate 18.75 g/ha), in data set [3] (Rate 75 g/ha) and in data set [3] (Rate 150 g/ha) were “C (Fresh weight inhibition rate≥40% to <60%)”, “C (Fresh weight inhibition rate≥40% to <60%)” and “B (Fresh weight inhibition rate≥260% to <80%)”, respectively.

With `CCc1nnc(N(C)C(=O)c2ccc(S(C)(=O)=O)c([S+]([O-])C(C)C)c2Cl)o1` (racemic) [Compound 3-810], the “Control efficacy grade, Echinochloa crusgalli” value in data set [4] was “B (Fresh weight inhibition rate≥260% to <80%)”. The “Oryza sativa subsp. japonica, grading of fresh weight inhibition rate (crop safety)” value in data set [1] (Rate 150 g/ha) is on record as “E (Fresh weight inhibition rate<20%)”. Besides, the “Oryza sativa subsp. indica, grading of fresh weight inhibition rate (crop safety)” value in data set [3] (Rate 150 g/ha) is on record as “E (Fresh weight inhibition rate<20%)”.

As to `CCC[S+]([O-])c1c(S(C)(=O)=O)ccc(C(=O)N(C)c2nnc(C(C)C)o2)c1Cl` (racemic) [Compound 3-801], the “Oryza sativa subsp. japonica, grading of fresh weight inhibition rate (crop safety)” value in data set [1] (Rate 150 g/ha) was “E (Fresh weight inhibition rate<20%)”. Moreover, in data set [2], the “Echinochloa crusgalli, control efficacy grading (fresh weight inhibition rate)” value is “A (Fresh weight inhibition rate≥80% to 100%)”. The “Oryza sativa subsp. indica, grading of fresh weight inhibition rate (crop safety)” value in data set [3] (Rate 150 g/ha) is “E (Fresh weight inhibition rate<20%)”.

As to `Cc1nnc(N(C)C(=O)c2ccc(S(C)(=O)=O)c([S+](C)[O-])c2Cl)o1` (stereo not drawn) [CK5, reference compound], the “Oryza sativa subsp. japonica, grading of fresh weight inhibition rate (crop safety)” value in data set [1] (Rate 18.75 g/ha), in data set [1] (Rate 75 g/ha) and in data set [1] (Rate 150 g/ha) was “E (Fresh weight inhibition rate<20%)” each time. Further, the inhibition at 18.75 g/ha in data set [2] (Echinochloa crus-galli, Rate 18.75 g/ha, read-out: Echinochloa crusgalli, control efficacy grading (fresh weight inhibition rate)) is less than 20%. For the same compound, the inhibition at 75 g/ha in data set [2] (setting [9]) was less than 20%. The inhibition at 150 g/ha in data set [2] (setting [9]) is 20 to 40%. In addition, the “Oryza sativa subsp. indica, grading of fresh weight inhibition rate (crop safety)” value is “E (Fresh weight inhibition rate<20%)” in data set [3] (Rate 18.75 g/ha), “E (Fresh weight inhibition rate<20%)” in data set [3] (Rate 75 g/ha) and “D (Fresh weight inhibition rate≥20% to <40%)” in data set [3] (Rate 150 g/ha).

In the case of `CCCS(=O)(=O)c1c(S(C)(=O)=O)ccc(C(=O)Nc2nnnn2CC)c1Cl` [Compound 1-91], the “Oryza sativa subsp. japonica, grading of fresh weight inhibition rate (crop safety)” value in data set [1] (Rate 150 g/ha) is “E (Fresh weight inhibition rate<20%)”. Moreover, the “Echinochloa crusgalli, control efficacy grading (fresh weight inhibition rate)” value in data set [2] is “A (Fresh weight inhibition rate≥80% to 100%)”. For the same compound, in data set [3] (Rate 150 g/ha), the “Oryza sativa subsp. indica, grading of fresh weight inhibition rate (crop safety)” value is “E (Fresh weight inhibition rate<20%)”.

In the case of `Cc1nnc(N(C)C(=O)c2ccc(S(C)(=O)=O)c([S+]([O-])C(C)C)c2Cl)o1` (racemic) [Compound 3-807], the “Control efficacy grade, Echinochloa crusgalli” value in data set [4] is “A (Fresh weight inhibition rate≥80% to 100%)”. Also, the “Oryza sativa subsp. japonica, grading of fresh weight inhibition rate (crop safety)” value in data set [1] (Rate 75 g/ha) and in data set [1] (Rate 150 g/ha) was “E (Fresh weight inhibition rate<20%)” each time. The “Oryza sativa subsp. indica, grading of fresh weight inhibition rate (crop safety)” value in data set [3] (Rate 75 g/ha) and in data set [3] (Rate 150 g/ha) was “E (Fresh weight inhibition rate<20%)” in each case.

`CC(C)[S+]([O-])c1c(S(C)(=O)=O)ccc(C(=O)N(C)c2nnco2)c1Cl` (racemic) [Compound 3-804]: the “Control efficacy grade, Echinochloa crusgalli” value in data set [4] was “A (Fresh weight inhibition rate≥80% to 100%)”. Also, the “Oryza sativa subsp. japonica, grading of fresh weight inhibition rate (crop safety)” value in data set [1] (Rate 150 g/ha) was “E (Fresh weight inhibition rate<20%)”. In addition, the “Oryza sativa subsp. indica, grading of fresh weight inhibition rate (crop safety)” value in data set [3] (Rate 150 g/ha) is “E (Fresh weight inhibition rate<20%)”.

Consider `Cc1nnc(NC(=O)c2ccc(S(C)(=O)=O)c(SCC(F)(F)F)c2Cl)o1` [Compound 3-97], for which the “Control efficacy grade, Digitaria sanguinalis” value in data set [5] was “A (Fresh weight inhibition rate≥80% to 100%)”. In addition, the “Control efficacy grade, Eclipta prostrata” value in data set [6] was “A (Fresh weight inhibition rate≥80% to 100%)”. Moreover, in data set [4], the “Control efficacy grade, Echinochloa crusgalli” value was “A (Fresh weight inhibition rate≥80% to 100%)”. In data set [7], the “Control efficacy grade, Cyperus iria” value is listed as “A (Fresh weight inhibition rate≥80% to 100%)”. Also, the “Control efficacy grade, Leptochloa chinensis” value in data set [8] is listed as “A (Fresh weight inhibition rate≥80% to 100%)”.

For `Cc1nnc(NC(=O)c2ccc(S(C)(=O)=O)c(SCCC#N)c2Cl)o1` [Compound 3-197], the “Control efficacy grade, Digitaria sanguinalis” value in data set [5] is on record as “A (Fresh weight inhibition rate≥80% to 100%)”. Besides, the “Control efficacy grade, Eclipta prostrata” value in data set [6] was “A (Fresh weight inhibition rate≥80% to 100%)”. The “Control efficacy grade, Echinochloa crusgalli” value in data set [4] is listed as “A (Fresh weight inhibition rate≥80% to 100%)”. Moreover, the “Control efficacy grade, Cyperus iria” value in data set [7] was “A (Fresh weight inhibition rate≥80% to 100%)”. Besides, the “Control efficacy grade, Leptochloa chinensis” value in data set [8] was “A (Fresh weight inhibition rate≥80% to 100%)”.

Regarding `CS(=O)(=O)c1ccc(C(=O)Nc2nnco2)c(Cl)c1[S+]([O-])C1CC1` (racemic) [Compound 3-304], in data set [5], the “Control efficacy grade, Digitaria sanguinalis” value is “A (Fresh weight inhibition rate≥80% to 100%)”. The “Control efficacy grade, Eclipta prostrata” value in data set [6] is listed as “A (Fresh weight inhibition rate≥80% to 100%)”. In addition, the “Control efficacy grade, Echinochloa crusgalli” value in data set [4] is reported as “A (Fresh weight inhibition rate≥80% to 100%)”. The “Control efficacy grade, Cyperus iria” value in data set [7] is “A (Fresh weight inhibition rate≥80% to 100%)”. In addition, the “Control efficacy grade, Leptochloa chinensis” value in data set [8] is “A (Fresh weight inhibition rate≥80% to 100%)”.

On to `CCC(C)[S+]([O-])c1c(S(C)(=O)=O)ccc(C(=O)Nc2nnco2)c1Cl` (mixture of isomers) [Compound 3-285], for which the “Control efficacy grade, Digitaria sanguinalis” value in data set [5] is “A (Fresh weight inhibition rate≥80% to 100%)”. The “Control efficacy grade, Eclipta prostrata” value in data set [6] is “A (Fresh weight inhibition rate≥80% to 100%)”. Also, in data set [4], the “Control efficacy grade, Echinochloa crusgalli” value is “A (Fresh weight inhibition rate≥80% to 100%)”. Also, the “Control efficacy grade, Cyperus iria” value in data set [7] is listed as “A (Fresh weight inhibition rate≥80% to 100%)”. Besides, the “Control efficacy grade, Leptochloa chinensis” value in data set [8] is on record as “A (Fresh weight inhibition rate≥80% to 100%)”.

In general, inhibition refers to the drop in the measured response relative to a control, in per cent.
